For 62 molecules, IC50 results are on record in patent US8431596B2 (Cancer Research Technology Limited, priority 2007, dated 2013).

A value given as a limit tells only on which side of the number the result lay.

In the test the target is T1, AXL (human catalytic domain) (Homo sapiens, UniProt P30530).
T1 construct: purchased Upstate Ltd. 14-512
T1 sequence (P30530 473-894): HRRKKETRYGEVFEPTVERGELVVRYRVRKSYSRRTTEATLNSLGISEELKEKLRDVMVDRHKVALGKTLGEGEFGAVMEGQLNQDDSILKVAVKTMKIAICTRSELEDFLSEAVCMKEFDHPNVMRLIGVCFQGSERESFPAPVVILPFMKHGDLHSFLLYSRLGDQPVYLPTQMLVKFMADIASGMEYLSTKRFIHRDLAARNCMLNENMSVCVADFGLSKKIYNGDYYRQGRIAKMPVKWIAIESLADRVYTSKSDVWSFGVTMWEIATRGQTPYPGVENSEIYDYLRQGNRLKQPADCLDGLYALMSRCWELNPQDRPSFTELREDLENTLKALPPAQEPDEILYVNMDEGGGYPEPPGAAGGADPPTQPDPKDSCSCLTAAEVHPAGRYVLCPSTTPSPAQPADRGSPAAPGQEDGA
Nature of the test: AXL (human catalytic domain) Enzyme Activity Assay (IMAP fluorescence polarisation). The test is classed as biochemical. Particulars: further data set (WW-001 through WW-169, XX-001 through XX-469, YY-001 through YY-016, ZZ-001 through ZZ-003); 150 μM ATP. The method, boiled down:
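IMAP FP readout (Ex485/Em535, after overnight binding) measured inhibition of the human AXL catalytic domain (aa473-894, 15 nM final) acting on 100 nM 5FAM-CSK-tide at 150 μM ATP, equal to KM. Reactions ran 60 min at room temperature in pH 7.0 HEPES buffer; IC50 from 10-point curves.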

With `CC(=O)Nc1cccc(-c2cccc3nc(Nc4ccc(OCCN5CCCC5)cc4)nn23)c1` [XX-241], the 50% inhibitory concentration (IC50) was in the range of 100 to 1000 nM. `c1ccc2cc(-c3cccc4nc(Nc5ccc(OCCN6CCCC6)cc5)nn34)ccc2c1` [XX-242] registered an IC50 of 100 to 1000 nM. As for `Oc1ccc(-c2cccc3nc(Nc4ccc(OCCN5CCCC5)cc4)nn23)cc1F` [XX-243], the IC50 fell in the range of 100 to 1000 nM.

For `FC(F)(F)Oc1ccc(-c2cccc3nc(Nc4ccc(OCCN5CCCC5)cc4)nn23)cc1` [XX-244], the IC50 lay within 100 to 1000 nM.

`COc1ccc(-c2cccc3nc(Nc4ccc(OCCN5CCCC5)cc4)nn23)cc1OC` [XX-245] registered an IC50 of 1000 to 10000 nM. `COc1cc(-c2cccc3nc(Nc4ccc(OCCN5CCCC5)cc4)nn23)cc(OC)c1OC` [XX-246]: the IC50 was in the range of 1000 to 10000 nM.

Molecule `c1ccc(Oc2ccc(-c3cccc4nc(Nc5ccc(OCCN6CCCC6)cc5)nn34)cc2)cc1` [XX-247] gave a concentration for half-maximal inhibition (IC50) of 100 to 1000 nM. Then `CC(c1ccc(-c2cccc3nc(Nc4ccc(OCCN5CCCC5)cc4)nn23)cc1)N(C)C` (centres unmarked) [XX-248], with 100 to 1000 nM. Then `O=C(Nc1ccc(-c2cccc3nc(Nc4ccc(OCCN5CCCC5)cc4)nn23)cc1)c1ccncc1` [XX-249], with 100 to 1000 nM; and `O=C(Nc1ccc(-c2cccc3nc(Nc4ccc(OCCN5CCCC5)cc4)nn23)cc1)c1ccno1` [XX-250], with 100 to 1000 nM.

`Cc1cc(C(=O)Nc2ccc(-c3cccc4nc(Nc5ccc(OCCN6CCCC6)cc5)nn34)cc2)on1` [XX-251] came in with an IC50 of 100 to 1000 nM. Then `c1ccc(CNc2ccc(-c3cccc4nc(Nc5ccc(OCCN6CCCC6)cc5)nn34)cc2)cc1` [XX-252], with 100 to 1000 nM. In the case of `CS(=O)(=O)Nc1ccc(-c2cccc3nc(Nc4ccc(OCCN5CCCC5)cc4)nn23)cc1` [XX-253], the IC50 lay in the range of 100 to 1000 nM.

As to `COc1ccc(S(=O)(=O)Nc2ccc(-c3cccc4nc(Nc5ccc(OCCN6CCCC6)cc5)nn34)cc2)cc1` [XX-254, 4-Methoxy-N-(4-{2-[4-(2-pyrrolidin-1-yl-ethoxy)-phenylamino]-[1,2,4]triazolo[1,5-a]pyridin-5-yl}-phenyl)-benzenesulfonamide], the IC50 is 100 to 1000 nM. The value for `Nc1cccc(-c2cccc3nc(Nc4ccc(OCCN5CCCC5)cc4)nn23)c1` [XX-255, [5-(3-Amino-phenyl)-[1,2,4]triazolo[1,5-a]pyridin-2-yl]-[4-(2-pyrrolidin-1-yl-ethoxy)-phenyl]-amine] was 100 to 1000 nM.

Consider `Oc1cccc(-c2cccc3nc(Nc4ccc(OCCN5CCCC5)cc4)nn23)c1` [XX-256, 3-{2-[4-(2-Pyrrolidin-1-yl-ethoxy)-phenylamino]-[1,2,4]triazolo[1,5-a]pyridin-5-yl}-phenol], for which the IC50 was in the range of 100 to 1000 nM.

Consider `c1cc(NCc2ccco2)cc(-c2cccc3nc(Nc4ccc(OCCN5CCCC5)cc4)nn23)c1` [XX-257], for which the IC50 was 100 to 1000 nM. Then `Cn1ccnc1CNc1cccc(-c2cccc3nc(Nc4ccc(OCCN5CCCC5)cc4)nn23)c1` [XX-258], with 1000 to 10000 nM; and `Cn1cncc1CNc1cccc(-c2cccc3nc(Nc4ccc(OCCN5CCCC5)cc4)nn23)c1` [XX-259], with 100 to 1000 nM; and `c1cc(NCc2cncs2)cc(-c2cccc3nc(Nc4ccc(OCCN5CCCC5)cc4)nn23)c1` [XX-260], with 1000 to 10000 nM. Then `c1cc(NCc2ncc[nH]2)cc(-c2cccc3nc(Nc4ccc(OCCN5CCCC5)cc4)nn23)c1` [XX-261], with 100 to 1000 nM. `Cc1cc(CNc2cccc(-c3cccc4nc(Nc5ccc(OCCN6CCCC6)cc5)nn34)c2)n(C)n1` [XX-262] yielded an IC50 of 1000 to 10000 nM. Regarding `Cc1nc(C)c(CNc2cccc(-c3cccc4nc(Nc5ccc(OCCN6CCCC6)cc5)nn34)c2)s1` [XX-263], the IC50 was in the range of 100 to 1000 nM. The value for `Fc1cccc(CNc2cccc(-c3cccc4nc(Nc5ccc(OCCN6CCCC6)cc5)nn34)c2)c1` [XX-264] was 100 to 1000 nM; that for `c1ccc(CCNc2ccc(-c3cccc4nc(Nc5ccc(OCCN6CCCC6)cc5)nn34)cc2)cc1` [XX-265] was 1000 to 10000 nM; that for `COc1ccc(CNc2ccc(-c3cccc4nc(Nc5ccc(OCCN6CCCC6)cc5)nn34)cc2)cc1` [XX-266] was 100 to 1000 nM. Regarding `Cc1ccc(CNc2ccc(-c3cccc4nc(Nc5ccc(OCCN6CCCC6)cc5)nn34)cc2)cc1` [XX-267], the IC50 lay in the range of 100 to 1000 nM. Turning to `c1cc(-c2ccc(NCc3ccoc3)cc2)n2nc(Nc3ccc(OCCN4CCCC4)cc3)nc2c1` [XX-268], the IC50 fell in the range of 100 to 1000 nM. The value for `CNC(=O)c1ccc(-c2cccc3nc(Nc4ccc(OCCN5CCCC5)cc4)nn23)cc1` [XX-269] was 1000 to 10000 nM; that for `c1cc(-c2ccc(Cn3cccn3)cc2)n2nc(Nc3ccc(OCCN4CCCC4)cc3)nc2c1` [XX-270] was 100 to 1000 nM; that for `Cc1ccc(S(=O)(=O)Nc2ccc(-c3cccc4nc(Nc5ccc(OCCN6CCCC6)cc5)nn34)cc2)cc1` [XX-271] was 100 to 1000 nM. The molecule `c1cc(-c2cnn(CCN3CCOCC3)c2)n2nc(Nc3ccc(OCCN4CCCC4)cc3)nc2c1` [XX-272] showed an IC50 of 1000 to 10000 nM. The value for `FC(F)(F)c1cccc(Cn2cc(-c3cccc4nc(Nc5ccc(OCCN6CCCC6)cc5)nn34)cn2)c1` [XX-273] was 100 to 1000 nM; that for `CC(C)Cn1cc(-c2cccc3nc(Nc4ccc(OCCN5CCCC5)cc4)nn23)cn1` [XX-274] was 1000 to 10000 nM; that for `c1csc(Cn2cc(-c3cccc4nc(Nc5ccc(OCCN6CCCC6)cc5)nn34)cn2)c1` [XX-275] was 100 to 1000 nM. On to `CS(=O)(=O)n1cc(-c2cccc3nc(Nc4ccc(OCCN5CCCC5)cc4)nn23)cn1` [XX-276, [5-(1-Methanesulfonyl-1H-pyrazol-4-yl)-[1,2,4]triazolo[1,5-a]pyridin-2-yl]-[4-(2-pyrrolidin-1-yl-ethoxy)-phenyl]-amine], for which the IC50 was 100 to 1000 nM. The value for `CC(=O)Nc1ccc(S(=O)(=O)Nc2ccc(-c3cccc4nc(Nc5ccc(OCCN6CCCC6)cc5)nn34)cc2)cc1` [XX-277] was 1000 to 10000 nM; that for `c1ccc(COc2cccc(-c3cccc4nc(Nc5ccc(OCCN6CCCC6)cc5)nn34)c2)cc1` [XX-278] was 100 to 1000 nM. The value for `Cc1ccc(-c2cccc3nc(Nc4ccc(OCCN5CCCC5)cc4)nn23)cc1C` [XX-279] was 100 to 1000 nM; that for `Cc1ccc(-c2cccc3nc(Nc4ccc(OCCN5CCCC5)cc4)nn23)cc1F` [XX-280] was at most 100 nM; that for `c1cc(-c2ccc3[nH]ccc3c2)n2nc(Nc3ccc(OCCN4CCCC4)cc3)nc2c1` [XX-281] was 1000 to 10000 nM. The value for `Fc1ccc(-c2cccc3nc(Nc4ccc(OCCN5CCCC5)cc4)nn23)cc1Cl` [XX-282] was 100 to 1000 nM. Regarding `CS(=O)(=O)c1cccc(-c2cccc3nc(Nc4ccc(OCCN5CCCC5)cc4)nn23)c1` [XX-283], the IC50 lay within 100 to 1000 nM. The value for `CC(C)CS(=O)(=O)n1cc(-c2cccc3nc(Nc4ccc(OCCN5CCCC5)cc4)nn23)cn1` [XX-284] was 100 to 1000 nM; that for `O=S(=O)(c1cccc(Cl)c1)n1cc(-c2cccc3nc(Nc4ccc(OCCN5CCCC5)cc4)nn23)cn1` [XX-285] was 100 to 1000 nM. The value for `Cc1cccc(CS(=O)(=O)n2cc(-c3cccc4nc(Nc5ccc(OCCN6CCCC6)cc5)nn34)cn2)c1` [XX-286] was 100 to 1000 nM; that for `O=S(=O)(Cc1cccc(C(F)(F)F)c1)n1cc(-c2cccc3nc(Nc4ccc(OCCN5CCCC5)cc4)nn23)cn1` [XX-287] was 100 to 1000 nM; that for `O=S(=O)(Cc1cccc(Cl)c1)n1cc(-c2cccc3nc(Nc4ccc(OCCN5CCCC5)cc4)nn23)cn1` [XX-288] was 100 to 1000 nM. The value for `COc1cccc(CS(=O)(=O)n2cc(-c3cccc4nc(Nc5ccc(OCCN6CCCC6)cc5)nn34)cn2)c1` [XX-289] was 100 to 1000 nM.

For `Cc1cccc(Cn2cc(-c3cccc4nc(Nc5ccc(OCCN6CCCC6)cc5)nn34)cn2)c1` [XX-290], the IC50 is at most 100 nM. Then `FC(F)(F)c1cc(-c2cccc3nc(Nc4ccc(OCCN5CCCC5)cc4)nn23)ccc1Cl` [XX-291], with 100 to 1000 nM; and `Cc1cc(C)cc(-c2cccc3nc(Nc4ccc(OCCN5CCCC5)cc4)nn23)c1` [XX-292], with 100 to 1000 nM. The value for `c1ccc2oc(-c3cccc4nc(Nc5ccc(OCCN6CCCC6)cc5)nn34)cc2c1` [XX-293] was 100 to 1000 nM; that for `c1ccc2sc(-c3cccc4nc(Nc5ccc(OCCN6CCCC6)cc5)nn34)cc2c1` [XX-294] was 100 to 1000 nM; that for `Cc1ccc(CS(=O)(=O)n2cc(-c3cccc4nc(Nc5ccc(OCCN6CCCC6)cc5)nn34)cn2)cc1` [XX-295] was 100 to 1000 nM. Molecule `CCCCS(=O)(=O)n1cc(-c2cccc3nc(Nc4ccc(OCCN5CCCC5)cc4)nn23)cn1` [XX-296] showed an IC50 of 1000 to 10000 nM. In turn, `Clc1ccc(-c2cccc3nc(Nc4ccc(OCCN5CCCC5)cc4)nn23)cc1Cl` [XX-297] yielded an IC50 of 100 to 1000 nM. `Clc1cc(Cl)cc(-c2cccc3nc(Nc4ccc(OCCN5CCCC5)cc4)nn23)c1` [XX-298]: the IC50 fell in the range of 100 to 1000 nM. For the molecule `Clc1ccc(-c2cccc3nc(Nc4ccc(OCCN5CCCC5)cc4)nn23)s1` [XX-299], the half-maximal inhibitory concentration (IC50) lay in the range of 100 to 1000 nM.

Take `CCN(CC)CCNc1cc(Nc2nc3cccc(-c4ccc(OC)cc4)n3n2)ccn1` [XX-300]: the IC50 lay within 100 to 1000 nM. Then `CCCCNC(=O)c1cccc(-c2cccc3nc(Nc4ccc(OCCN5CCCC5)cc4)nn23)c1` [XX-301], with 1000 to 10000 nM; and `C#CCn1cc(-c2cccc3nc(Nc4ccc(OCCN5CCCC5)cc4)nn23)cn1` [XX-302], with 100 to 1000 nM.
